The values below come from patent US20240383901A1, “SUBSTITUTED PYRROLO[2,3-D]PYRIMIDINES, THEIR PREPARATION AND THEIR THERAPEUTIC APPLICATION” (SANOFI, priority 2021, published 2024).

Experiment [1] concerns the target T1, full-length LRRK2 wild type (Homo sapiens, UniProt Q5S007).
T1 construct: DYDDDDK tagged full-length LRRK2 wild type is used
The experiment in a line: LRRK2 WT assay (Assay A, Lanthascreen TR-FRET, 500 uM ATP). It counts as biochemical. The following applies: Assay A (values without *). As for the experimental part:
(§1) The potency of compounds was evaluated in vitro using the Lanthascreen® technology (ThermoFisher Scientific).
(§2) In a typical experiment, the reaction assay buffer contains 50 mM Tris pH8.2, 1 mM EGTA, 2.5 mM MgCl2, 0.05% Triton X100, 0.15% BSA and 1 mM DTT. The detection of the assay is performed using 1 nM Terbium labeled anti-phospho-LRRKtide (ThermoFisher Scientific) diluted in a TR-FRET buffer (ThermoFisher Scientific).
(§3) The experimental procedure was performed with Greiner small volume® 384-well. […] The working solution of compounds was prepared in a separate Greiner microplate.
(§4) The kinase reaction was initiated by addition of the ATP/LRRKtide substrate mix diluted in the reaction assay buffer. The reaction mix was incubated for at least 10 minutes at room temperature (initial velocity conditions). Reaction was stopped by addition of Terbium labeled anti-phospho-LRRKtide diluted into the detection buffer supplemented with EDTA (ThermoFisher Scientific). Plates are incubated for at least 30 minutes at room temperature and read on an Envision™ multimode plate reader (PerkinElmer) with LanthaScreen™. The TR-FRET 520:495 nm emission ratio was calculated and used to determine the IC50 value from a dose response curve fit to the 4-parameter logistic equation. The activity with respect to LRRK2 kinase in this test is given by the concentration which inhibits 50% of the LRRK2 activity (or IC50) in nM.
(TR-FRET usually uses a lanthanide donor and a delayed reading to cut background.)

The next experiment has as its target T2, full-length LRRK2 G2019S (Homo sapiens, UniProt Q5S007, G2019S).
T2 construct: DYKDDDDK (FLAG)
The experiment in a line: LRRK2-G2019S kinase activity assay (Lanthascreen TR-FRET). Type of experiment: biochemical. The following applies: 1.1 mM ATP. As for the experimental part:
as §1, §2, §3, §4

T1 sequence (Q5S007 whole entry): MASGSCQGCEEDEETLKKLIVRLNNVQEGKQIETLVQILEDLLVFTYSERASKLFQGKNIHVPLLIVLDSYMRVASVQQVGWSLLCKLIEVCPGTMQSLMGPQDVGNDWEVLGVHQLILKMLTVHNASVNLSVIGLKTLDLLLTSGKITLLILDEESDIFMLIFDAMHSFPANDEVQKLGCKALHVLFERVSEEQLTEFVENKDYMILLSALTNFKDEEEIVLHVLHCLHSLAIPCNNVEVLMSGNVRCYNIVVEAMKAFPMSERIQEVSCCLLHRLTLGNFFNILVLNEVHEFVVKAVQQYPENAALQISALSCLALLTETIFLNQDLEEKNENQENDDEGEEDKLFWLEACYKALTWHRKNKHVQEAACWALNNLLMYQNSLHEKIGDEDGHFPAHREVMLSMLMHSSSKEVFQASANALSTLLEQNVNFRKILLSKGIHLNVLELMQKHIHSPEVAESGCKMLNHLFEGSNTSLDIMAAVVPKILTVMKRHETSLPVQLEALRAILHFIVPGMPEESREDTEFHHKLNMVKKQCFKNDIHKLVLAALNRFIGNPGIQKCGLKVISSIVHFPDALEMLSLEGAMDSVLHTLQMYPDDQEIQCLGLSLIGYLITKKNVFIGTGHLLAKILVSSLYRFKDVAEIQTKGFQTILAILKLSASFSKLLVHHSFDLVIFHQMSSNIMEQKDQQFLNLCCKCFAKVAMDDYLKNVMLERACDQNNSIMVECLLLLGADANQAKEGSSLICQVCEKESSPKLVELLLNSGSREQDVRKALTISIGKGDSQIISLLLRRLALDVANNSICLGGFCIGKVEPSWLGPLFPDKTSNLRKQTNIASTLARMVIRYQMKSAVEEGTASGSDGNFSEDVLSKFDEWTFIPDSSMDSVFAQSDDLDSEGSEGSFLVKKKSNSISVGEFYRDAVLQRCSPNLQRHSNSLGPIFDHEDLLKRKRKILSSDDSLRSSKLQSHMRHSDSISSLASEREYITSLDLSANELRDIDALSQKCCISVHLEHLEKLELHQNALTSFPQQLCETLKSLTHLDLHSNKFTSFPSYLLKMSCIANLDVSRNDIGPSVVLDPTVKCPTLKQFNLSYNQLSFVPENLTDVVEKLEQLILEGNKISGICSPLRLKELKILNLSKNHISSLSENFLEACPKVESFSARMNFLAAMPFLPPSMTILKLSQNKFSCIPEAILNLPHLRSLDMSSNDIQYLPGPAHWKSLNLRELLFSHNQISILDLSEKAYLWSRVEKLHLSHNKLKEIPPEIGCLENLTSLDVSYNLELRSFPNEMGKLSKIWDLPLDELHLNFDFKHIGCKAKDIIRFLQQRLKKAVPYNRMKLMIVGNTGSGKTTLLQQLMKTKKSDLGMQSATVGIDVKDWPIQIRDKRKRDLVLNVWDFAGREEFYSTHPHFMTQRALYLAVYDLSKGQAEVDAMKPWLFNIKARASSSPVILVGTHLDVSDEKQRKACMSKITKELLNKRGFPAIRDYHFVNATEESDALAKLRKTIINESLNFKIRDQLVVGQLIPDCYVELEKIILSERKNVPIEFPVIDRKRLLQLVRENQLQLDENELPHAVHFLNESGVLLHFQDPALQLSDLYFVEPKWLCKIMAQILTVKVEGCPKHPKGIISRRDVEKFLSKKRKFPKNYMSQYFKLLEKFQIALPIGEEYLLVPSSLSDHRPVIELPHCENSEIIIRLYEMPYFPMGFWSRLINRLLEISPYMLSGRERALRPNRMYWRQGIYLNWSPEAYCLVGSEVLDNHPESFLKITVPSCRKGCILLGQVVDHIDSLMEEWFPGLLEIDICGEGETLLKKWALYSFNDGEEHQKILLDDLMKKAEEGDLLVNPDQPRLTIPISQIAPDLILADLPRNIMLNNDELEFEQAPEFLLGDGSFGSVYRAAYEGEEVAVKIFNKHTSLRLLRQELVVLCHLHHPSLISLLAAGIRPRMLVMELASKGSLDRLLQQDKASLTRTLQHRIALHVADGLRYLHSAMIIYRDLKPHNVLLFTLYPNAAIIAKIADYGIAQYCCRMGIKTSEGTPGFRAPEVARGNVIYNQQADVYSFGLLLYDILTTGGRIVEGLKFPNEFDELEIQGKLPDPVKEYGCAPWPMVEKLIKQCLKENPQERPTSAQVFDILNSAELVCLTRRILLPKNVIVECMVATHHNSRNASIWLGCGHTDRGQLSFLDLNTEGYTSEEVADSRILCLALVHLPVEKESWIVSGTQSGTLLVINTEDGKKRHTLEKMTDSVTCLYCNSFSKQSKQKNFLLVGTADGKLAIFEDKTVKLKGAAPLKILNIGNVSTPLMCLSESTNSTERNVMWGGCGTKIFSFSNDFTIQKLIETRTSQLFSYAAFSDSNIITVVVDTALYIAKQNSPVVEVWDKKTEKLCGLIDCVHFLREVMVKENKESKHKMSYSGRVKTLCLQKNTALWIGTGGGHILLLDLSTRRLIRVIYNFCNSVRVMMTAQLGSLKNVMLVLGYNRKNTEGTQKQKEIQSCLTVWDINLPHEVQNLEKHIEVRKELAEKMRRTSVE
T2 sequence (Q5S007 whole entry G2019S): as the sequence (Q5S007 whole entry) above, with G2019S counted along it

On to `COCn1cc(Nc2ncc3cc(C#N)n([C@H]4COC[C@@H]4C)c3n2)c(O[C@@H]2CO[C@H]2C)n1` (mixture of isomers) [Example 39, 2-[[1-(methoxymethyl)-3-[(trans)-2-methyloxetan-3-yl]oxy-pyrazol-4-yl]amino]-7-[(3R,4R)-4-methyltetrahydrofuran-3-yl]pyrrolo[2,3-d]pyrimidine-6-carbonitrile], for which the IC50 in experiment [1] is 10 nM; on full-length LRRK2 G2019S it was 8 nM.
`CO[C@H]1COC[C@H]1n1c(C#N)cc2cnc(Nc3cn(C4COC4)nc3OC(C)C(F)(F)F)nc21` (mixture of isomers) [Example 54, 7-((3R,4R)-4-Methoxytetrahydrofuran-3-yl)-2-((1-(oxetan-3-yl)-3-((1,1,1-trifluoropropan-2-yl)oxy)-1 H-pyrazol-4-yl)amino)-7H-pyrrolo[2,3-d]pyrimidine-6-carbonitrile]: the IC50 came to 61 nM in experiment [1] and 27 nM on full-length LRRK2 G2019S.
Consider `[2H]C([2H])([2H])n1cc(Nc2ncc3cc(C#N)n(C4COCC4C)c3n2)c(OC2CCC2(C)O)n1` (mixture of isomers) [Example 142, 2-((3-((1S,2S)-2-hydroxy-2-methylcyclobutoxy)-1-(methyl-d3)-1 H-pyrazol-4-yl)amino)-7-((3R,4R)-4-methyltetrahydrofuran-3-yl)-7H-pyrrolo[2,3-d]pyrimidine-6-carbonitrile and 2-((3-((1 R,2R)-2-hydroxy-2-methylcyclobutoxy)-1-(methyl-d3)-1 H-pyrazol-4-yl)amino)-7-((3R,4R)-4-methyltetrahydrofuran-3-yl)-7H-pyrrolo[2,3-d]pyrimidine-6-carbonitrile], for which the figures for the IC50 (in experiment [1]; against full-length LRRK2 G2019S) were 3 nM and 5 nM, respectively.
Regarding `COC[C@H](C)n1c(C#N)cc2cnc(Nc3cn(CCO)nc3OC3CCOC3)nc21` (mixture of isomers) [Example 151, 2-((1-(2-hydroxyethyl)-3-((tetrahydrofuran-3-yl)oxy)-1 H-pyrazol-4-yl)amino)-7-((S)-1-methoxypropan-2-yl)-7H-pyrrolo[2,3-d]pyrimidine-6-carbonitrile], the IC50 came to 31 nM in experiment [1] and 27 nM on full-length LRRK2 G2019S.
As to `CC(C(F)F)n1cc(Nc2ncc3cc(C#N)n([C@H]4COC[C@@H]4C)c3n2)c(OC2CC2)n1` (mixture of isomers) [Example 43, 2-((3-cyclopropoxy-1-(1,1-difluoropropan-2-yl)-1H-pyrazol-4-yl)amino)-7-((3R,4R)-4-methyltetrahydrofuran-3-yl)-7H-pyrrolo[2,3-d]pyrimidine-6-carbonitrile], the IC50 in experiment [1] was determined as 2 nM; on full-length LRRK2 G2019S, 1 nM.
With `CC(C)Oc1nn(C)cc1Nc1ncc2cc(C#N)n([C@@H]3COC[C@@H]3C)c2n1` (racemic) [Example 47, 2-((3-isopropoxy-1-methyl-1 H-pyrazol-4-yl)amino)-7-((cis)-4-methyltetrahydrofuran-3-yl)-7H-pyrrolo[2,3-d]pyrimidine-6-carbonitrile], the IC50 in experiment [1] is 36 nM; against full-length LRRK2 G2019S it was 31 nM.
On the same counts, the results for `CO[C@@H]1COC[C@H]1n1c(C#N)cc2cnc(Nc3cn(C)nc3OC3COC3)nc21` (racemic) [Example 70, 7-((trans)-4-methoxytetrahydrofuran-3-yl)-2-((1-methyl-3-(oxetan-3-yloxy)-1 H-pyrazol-4-yl)amino)-7H-pyrrolo[2,3-d]pyrimidine-6-carbonitrile] are 270 nM and 160 nM.
With `CO[C@@H]1COC[C@H]1n1c(C#N)cc2cnc(Nc3ccc(C(C)(C)O)cc3OC3COC3)nc21` (racemic) [Example 71, 2-((4-(2-hydroxypropan-2-yl)-2-(oxetan-3-yloxy)phenyl)amino)-7-((trans)-4-methoxytetrahydrofuran-3-yl)-7H-pyrrolo[2,3-d]pyrimidine-6-carbonitrile], the IC50 in experiment [1] came out at 109 nM; on full-length LRRK2 G2019S, 69 nM.
Consider `C[C@@H]1COC[C@H]1Oc1nn(C)cc1Nc1ncc2cc(C#N)n([C@H]3COC[C@@H]3C)c2n1` (single isomer, unassigned) [Example 2], for which the IC50 (in experiment [1]; against full-length LRRK2 G2019S) was 5 nM throughout.
Turning to `C[C@@H]1COC[C@H]1Oc1nn(C)cc1Nc1ncc2cc(C#N)n([C@H]3COC[C@@H]3C)c2n1` (single isomer, unassigned) [Example 3], the IC50 worked out at 5 nM in experiment [1] and 4 nM against full-length LRRK2 G2019S.
`CC(C(F)F)n1cc(Nc2ncc3cc(C#N)n([C@H]4COC[C@@H]4C)c3n2)c(OC2COC2)n1` (single isomer, unassigned) [Example 4]: the IC50 (in experiment [1]; against full-length LRRK2 G2019S) was 1 nM throughout.
With `CC(C(F)F)n1cc(Nc2ncc3cc(C#N)n([C@H]4COC[C@@H]4C)c3n2)c(OC2COC2)n1` (single isomer, unassigned) [Example 5], the IC50 in experiment [1] is 4 nM; on full-length LRRK2 G2019S it was 5 nM.
In the same order, the values of `C[C@@H]1OC[C@H]1Oc1nn(C)cc1Nc1ncc2cc(C#N)n([C@H]3COC[C@@H]3C)c2n1` (single isomer, unassigned) [Example 6] are 5 nM and 4 nM.
`C[C@@H]1OC[C@H]1Oc1nn(C)cc1Nc1ncc2cc(C#N)n([C@H]3COC[C@@H]3C)c2n1` (single isomer, unassigned) [Example 7]: the IC50 (in experiment [1]; against full-length LRRK2 G2019S) was 2 nM throughout.
In the case of `CC(Oc1nn(C2COC2)cc1Nc1ncc2cc(C#N)n([C@H]3COC[C@@H]3C)c2n1)C(F)(F)F` (single isomer, unassigned) [Example 10], the IC50 (in experiment [1]; at full-length LRRK2 G2019S) was 1 nM throughout.
Turning to `CC(Oc1nn(C2COC2)cc1Nc1ncc2cc(C#N)n([C@H]3COC[C@@H]3C)c2n1)C(F)(F)F` (single isomer, unassigned) [Example 11], the IC50 was 27 nM in experiment [1] and 19 nM against full-length LRRK2 G2019S.
In the same order, the values of `CO[C@@H]1COC[C@H]1Oc1nn(C)cc1Nc1ncc2cc(C#N)n([C@H]3COC[C@@H]3C)c2n1` (single isomer, unassigned) [Example 12] are 8 nM and 6 nM.
In the same order, the values of `CO[C@@H]1COC[C@H]1Oc1nn(C)cc1Nc1ncc2cc(C#N)n([C@H]3COC[C@@H]3C)c2n1` (single isomer, unassigned) [Example 13] are 13 nM and 9 nM.
In the same order, the values of `CC(Oc1nn(C)cc1Nc1ncc2cc(C#N)n([C@H]3COC[C@@H]3C)c2n1)C(F)(F)F` (single isomer, unassigned) [Example 21] are 1 nM and 1 nM.
With `CC(Oc1nn(C)cc1Nc1ncc2cc(C#N)n([C@H]3COC[C@@H]3C)c2n1)C(F)(F)F` (single isomer, unassigned) [Example 22], the IC50 in experiment [1] was 30 nM; on full-length LRRK2 G2019S it was 25 nM.
On the same counts, the results for `[2H]C([2H])([2H])n1cc(Nc2ncc3cc(C#N)n([C@H]4COC[C@@H]4C)c3n2)c(O[C@H]2CO[C@H]2C)n1` (single isomer, unassigned) [Example 23] are 10 nM and 8 nM.
In the same order, the values of `C[C@H]1COC[C@H]1n1c(C#N)cc2cnc(Nc3cn(C)nc3OC3COC3)nc21` (single isomer, unassigned) [Example 45, 2-((1-methyl-3-(oxetan-3-yloxy)-1 H-pyrazol-4-yl)amino)-7-((cis)-4-methyltetrahydrofuran-3-yl)-7H-pyrrolo[2,3-d]pyrimidine-6-carbonitrile] are 46 nM and 35 nM.
On the same counts, the results for `C[C@H]1COC[C@H]1n1c(C#N)cc2cnc(Nc3cn(C)nc3OC3COC3)nc21` (single isomer, unassigned) [Example 46, 2-((1-methyl-3-(oxetan-3-yloxy)-1 H-pyrazol-4-yl)amino)-7-((cis)-4-methyltetrahydrofuran-3-yl)-7H-pyrrolo[2,3-d]pyrimidine-6-carbonitrile] are 489 nM and 413 nM.
In the case of `CO[C@H]1COC[C@H]1n1c(C#N)cc2cnc(Nc3cn(C(C)C#N)nc3OC(C)C)nc21` (single isomer, unassigned) [Example 56], the IC50 in experiment [1] came out at 7 nM; at full-length LRRK2 G2019S, 4 nM.
In the same order, the values of `C[C@@H]1OC[C@H]1n1c(C#N)cc2cnc(Nc3cn(C)nc3OC3COC3)nc21` (single isomer, unassigned) [Example 76, 7-[(trans)-2-methyloxetan-3-yl]-2-[[1-methyl-3-(oxetan-3-yloxy)pyrazol-4-yl]amino]pyrrolo[2,3-d]pyrimidine-6-carbonitrile] are 241 nM and 200 nM.
As to `C[C@@H]1OC[C@H]1n1c(C#N)cc2cnc(Nc3cn(C)nc3OC3COC3)nc21` (single isomer, unassigned) [Example 77, 7-[(trans)-2-methyloxetan-3-yl]-2-[[1-methyl-3-(oxetan-3-yloxy)pyrazol-4-yl]amino]pyrrolo[2,3-d]pyrimidine-6-carbonitrile], the IC50 in experiment [1] turned out to be 34 nM; against full-length LRRK2 G2019S, 21 nM.
In turn, `COC[C@H](C)n1c(C#N)cc2cnc(Nc3cn(C)nc3O[C@@H]3CO[C@H]3C)nc21` (single isomer, unassigned) [Example 87] displayed a half-inhibitory concentration (IC50) in experiment [1] of 8 nM.
Same read-out and setting: the figure for `[2H]C([2H])([2H])n1cc(Nc2ncc3cc(C#N)n([C@@H](C)COC)c3n2)c(O[C@@H]2CO[C@H]2C)n1` (single isomer, unassigned) [Example 89] is 9 nM.

What is called IC50 is the concentration at which inhibition is half-maximal. A higher IC50 goes with lower potency.
